Source: article PMC5080985 (Journal of medicinal chemistry, 2015)

How the values were obtained:
[1] = target: AmpC β-lactamase (Escherichia coli, UniProt P00811); test: Controls for colloidal aggregation; details: AmpC β-lactamase counterscreen, particle formation by DLS
[2] = target: T1, KDM4C (Homo sapiens, UniProt Q9H3R0); test: Thermal shift assay; format: binding
T1 sequence (Q9H3R0 1-1056): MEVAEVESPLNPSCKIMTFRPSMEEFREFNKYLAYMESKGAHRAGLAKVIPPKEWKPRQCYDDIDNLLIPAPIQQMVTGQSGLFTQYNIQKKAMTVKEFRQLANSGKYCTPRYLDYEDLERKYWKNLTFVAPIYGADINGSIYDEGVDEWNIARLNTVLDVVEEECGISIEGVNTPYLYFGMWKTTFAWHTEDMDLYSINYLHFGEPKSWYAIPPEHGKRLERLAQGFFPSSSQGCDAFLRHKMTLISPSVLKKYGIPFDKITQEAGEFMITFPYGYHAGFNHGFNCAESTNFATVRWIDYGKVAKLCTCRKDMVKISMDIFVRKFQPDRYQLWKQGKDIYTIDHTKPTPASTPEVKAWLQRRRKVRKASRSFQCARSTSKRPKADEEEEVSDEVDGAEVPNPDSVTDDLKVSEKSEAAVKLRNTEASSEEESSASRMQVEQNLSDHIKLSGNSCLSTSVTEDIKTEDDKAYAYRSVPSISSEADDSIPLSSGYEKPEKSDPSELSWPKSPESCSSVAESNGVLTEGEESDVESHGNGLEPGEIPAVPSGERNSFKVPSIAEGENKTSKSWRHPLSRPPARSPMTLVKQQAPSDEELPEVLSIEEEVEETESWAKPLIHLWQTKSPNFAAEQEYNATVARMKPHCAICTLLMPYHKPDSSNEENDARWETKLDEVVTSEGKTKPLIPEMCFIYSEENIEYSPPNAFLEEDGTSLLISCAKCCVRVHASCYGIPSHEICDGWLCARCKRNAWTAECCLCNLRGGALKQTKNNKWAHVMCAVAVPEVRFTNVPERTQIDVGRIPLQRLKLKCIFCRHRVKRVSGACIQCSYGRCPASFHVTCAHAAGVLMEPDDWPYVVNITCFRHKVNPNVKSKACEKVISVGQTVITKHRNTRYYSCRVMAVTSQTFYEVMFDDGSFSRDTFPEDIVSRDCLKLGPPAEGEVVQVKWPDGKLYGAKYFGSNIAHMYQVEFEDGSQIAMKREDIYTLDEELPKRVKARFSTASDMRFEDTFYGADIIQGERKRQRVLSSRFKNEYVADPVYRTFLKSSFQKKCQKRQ

[3] = target: FIH (Homo sapiens, UniProt Q9NWT6); test: MALDI counterscreen, FIH; format: biochemical
FIH, sequence (Q9NWT6 whole entry): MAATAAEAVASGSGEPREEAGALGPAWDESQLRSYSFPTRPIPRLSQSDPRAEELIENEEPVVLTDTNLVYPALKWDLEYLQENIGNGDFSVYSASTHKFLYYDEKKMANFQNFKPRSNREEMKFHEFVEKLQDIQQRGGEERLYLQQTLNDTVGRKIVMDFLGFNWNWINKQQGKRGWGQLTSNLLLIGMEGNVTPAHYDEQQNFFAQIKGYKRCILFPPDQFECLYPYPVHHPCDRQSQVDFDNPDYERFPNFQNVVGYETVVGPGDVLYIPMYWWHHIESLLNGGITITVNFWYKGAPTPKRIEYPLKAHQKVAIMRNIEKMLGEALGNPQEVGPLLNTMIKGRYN

[4] = target: T1, KDM4C; test: MALDI assay, KDM4C; format: biochemical
[5] = target: KDM5B (JARID1B, PLU-1) (Homo sapiens, UniProt Q9UGL1); test: AlphaScreen counterscreen, KDM5B; format: biochemical
KDM5B (JARID1B, PLU-1), sequence (Q9UGL1 whole entry, species assumed): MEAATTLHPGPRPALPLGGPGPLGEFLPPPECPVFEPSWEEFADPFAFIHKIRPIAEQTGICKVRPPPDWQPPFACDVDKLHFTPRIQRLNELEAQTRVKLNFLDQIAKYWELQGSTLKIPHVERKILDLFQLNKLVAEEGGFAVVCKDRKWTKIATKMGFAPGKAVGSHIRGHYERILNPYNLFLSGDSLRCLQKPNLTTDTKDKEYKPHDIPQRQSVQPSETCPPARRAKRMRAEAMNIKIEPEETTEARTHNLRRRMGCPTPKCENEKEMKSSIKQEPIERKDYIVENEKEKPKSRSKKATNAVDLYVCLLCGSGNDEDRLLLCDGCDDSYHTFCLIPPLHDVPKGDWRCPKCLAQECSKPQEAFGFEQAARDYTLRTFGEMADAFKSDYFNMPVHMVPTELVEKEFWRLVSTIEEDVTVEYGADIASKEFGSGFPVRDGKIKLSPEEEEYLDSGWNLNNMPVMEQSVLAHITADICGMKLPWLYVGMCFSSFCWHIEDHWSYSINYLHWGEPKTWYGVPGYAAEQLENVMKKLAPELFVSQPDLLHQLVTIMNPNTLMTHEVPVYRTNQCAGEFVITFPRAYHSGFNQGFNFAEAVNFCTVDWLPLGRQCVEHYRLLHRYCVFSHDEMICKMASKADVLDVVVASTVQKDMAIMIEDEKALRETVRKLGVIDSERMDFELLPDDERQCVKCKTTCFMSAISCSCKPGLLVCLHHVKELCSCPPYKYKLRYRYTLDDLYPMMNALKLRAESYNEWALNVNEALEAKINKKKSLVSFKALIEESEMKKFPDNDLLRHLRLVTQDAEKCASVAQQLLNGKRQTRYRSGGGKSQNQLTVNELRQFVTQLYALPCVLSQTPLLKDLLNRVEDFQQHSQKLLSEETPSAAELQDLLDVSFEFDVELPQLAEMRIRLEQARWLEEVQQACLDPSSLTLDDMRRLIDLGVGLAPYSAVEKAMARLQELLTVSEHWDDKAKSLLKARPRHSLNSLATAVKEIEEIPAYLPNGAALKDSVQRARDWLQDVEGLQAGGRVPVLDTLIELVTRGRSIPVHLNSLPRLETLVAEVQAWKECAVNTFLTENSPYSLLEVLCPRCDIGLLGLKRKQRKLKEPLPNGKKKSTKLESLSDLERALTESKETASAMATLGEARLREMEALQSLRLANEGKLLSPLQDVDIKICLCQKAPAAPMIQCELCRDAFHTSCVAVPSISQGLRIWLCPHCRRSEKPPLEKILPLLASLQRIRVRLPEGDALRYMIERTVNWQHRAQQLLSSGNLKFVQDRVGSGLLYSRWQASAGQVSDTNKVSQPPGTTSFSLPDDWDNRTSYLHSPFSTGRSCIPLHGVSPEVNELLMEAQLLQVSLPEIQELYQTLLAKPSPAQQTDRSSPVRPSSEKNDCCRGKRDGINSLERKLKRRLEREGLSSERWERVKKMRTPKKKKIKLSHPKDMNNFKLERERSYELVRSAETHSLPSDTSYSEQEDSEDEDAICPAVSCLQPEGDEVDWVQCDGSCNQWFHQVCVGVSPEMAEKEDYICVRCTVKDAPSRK

[6] = target: T2, KDM4C (Homo sapiens, UniProt Q9H3R0); test: KDM4C time-resolved FRET; format: biochemical
T2 sequence (Q9H3R0 1-352): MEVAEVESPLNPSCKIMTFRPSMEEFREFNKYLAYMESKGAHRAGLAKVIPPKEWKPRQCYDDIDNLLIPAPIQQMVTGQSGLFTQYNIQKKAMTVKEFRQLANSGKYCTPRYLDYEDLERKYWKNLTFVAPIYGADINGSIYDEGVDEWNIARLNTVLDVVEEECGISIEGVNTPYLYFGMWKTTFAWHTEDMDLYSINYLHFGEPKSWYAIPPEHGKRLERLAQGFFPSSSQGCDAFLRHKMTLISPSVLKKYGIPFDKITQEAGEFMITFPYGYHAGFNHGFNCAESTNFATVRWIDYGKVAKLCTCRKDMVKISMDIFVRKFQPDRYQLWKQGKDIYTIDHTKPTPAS

[7] = target: KDM6B (JMJD3) (Homo sapiens, UniProt O15054); test: AlphaScreen counterscreen, KDM6B; format: biochemical
KDM6B (JMJD3), sequence (O15054 whole entry, species assumed): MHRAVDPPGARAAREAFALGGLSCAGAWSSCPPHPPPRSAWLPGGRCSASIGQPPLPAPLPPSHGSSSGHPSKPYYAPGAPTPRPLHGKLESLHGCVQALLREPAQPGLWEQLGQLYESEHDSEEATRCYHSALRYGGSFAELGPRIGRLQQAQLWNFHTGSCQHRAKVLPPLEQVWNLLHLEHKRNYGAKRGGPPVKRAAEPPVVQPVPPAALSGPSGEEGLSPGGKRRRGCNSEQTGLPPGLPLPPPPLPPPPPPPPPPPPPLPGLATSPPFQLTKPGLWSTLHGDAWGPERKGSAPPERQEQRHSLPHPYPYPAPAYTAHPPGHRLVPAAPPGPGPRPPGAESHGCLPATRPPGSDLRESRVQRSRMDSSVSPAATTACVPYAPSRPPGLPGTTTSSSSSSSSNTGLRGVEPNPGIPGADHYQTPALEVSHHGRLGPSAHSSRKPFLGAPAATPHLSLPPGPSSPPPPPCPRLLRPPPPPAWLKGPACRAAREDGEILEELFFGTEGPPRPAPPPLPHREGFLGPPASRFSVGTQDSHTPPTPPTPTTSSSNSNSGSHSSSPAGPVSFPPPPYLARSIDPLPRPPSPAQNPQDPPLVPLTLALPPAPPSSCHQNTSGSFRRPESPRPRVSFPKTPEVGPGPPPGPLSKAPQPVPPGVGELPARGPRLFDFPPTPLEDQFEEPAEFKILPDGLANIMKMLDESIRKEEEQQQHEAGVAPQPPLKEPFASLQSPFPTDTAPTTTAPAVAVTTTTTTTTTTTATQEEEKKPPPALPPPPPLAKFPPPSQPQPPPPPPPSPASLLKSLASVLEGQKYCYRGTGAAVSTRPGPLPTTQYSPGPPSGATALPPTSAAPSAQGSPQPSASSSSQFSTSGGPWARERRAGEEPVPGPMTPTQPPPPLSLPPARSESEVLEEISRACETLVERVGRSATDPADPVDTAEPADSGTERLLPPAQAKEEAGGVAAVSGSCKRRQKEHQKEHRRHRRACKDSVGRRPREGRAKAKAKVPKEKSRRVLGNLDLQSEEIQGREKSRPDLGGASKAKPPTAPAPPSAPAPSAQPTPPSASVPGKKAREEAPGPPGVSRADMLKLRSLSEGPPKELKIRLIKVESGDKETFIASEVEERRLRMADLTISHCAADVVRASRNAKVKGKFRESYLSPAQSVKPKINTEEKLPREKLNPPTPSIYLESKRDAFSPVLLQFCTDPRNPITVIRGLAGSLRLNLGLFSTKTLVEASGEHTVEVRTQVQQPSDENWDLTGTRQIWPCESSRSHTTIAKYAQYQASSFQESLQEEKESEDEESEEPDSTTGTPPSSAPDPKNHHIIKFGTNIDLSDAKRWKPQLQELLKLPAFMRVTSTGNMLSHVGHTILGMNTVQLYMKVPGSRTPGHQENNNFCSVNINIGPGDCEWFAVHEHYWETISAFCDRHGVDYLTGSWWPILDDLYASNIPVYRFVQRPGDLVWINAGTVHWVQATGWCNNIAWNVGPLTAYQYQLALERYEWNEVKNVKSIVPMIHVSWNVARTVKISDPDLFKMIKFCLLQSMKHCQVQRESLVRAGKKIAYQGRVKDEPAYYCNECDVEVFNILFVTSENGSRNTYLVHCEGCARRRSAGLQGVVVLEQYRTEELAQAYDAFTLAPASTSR

[8] = target: T3, KDM2A (FBXL11) (Homo sapiens, UniProt Q9Y2K7); test: AlphaScreen counterscreen, KDM2A; format: biochemical
T3 sequence (Q9Y2K7 1-1162): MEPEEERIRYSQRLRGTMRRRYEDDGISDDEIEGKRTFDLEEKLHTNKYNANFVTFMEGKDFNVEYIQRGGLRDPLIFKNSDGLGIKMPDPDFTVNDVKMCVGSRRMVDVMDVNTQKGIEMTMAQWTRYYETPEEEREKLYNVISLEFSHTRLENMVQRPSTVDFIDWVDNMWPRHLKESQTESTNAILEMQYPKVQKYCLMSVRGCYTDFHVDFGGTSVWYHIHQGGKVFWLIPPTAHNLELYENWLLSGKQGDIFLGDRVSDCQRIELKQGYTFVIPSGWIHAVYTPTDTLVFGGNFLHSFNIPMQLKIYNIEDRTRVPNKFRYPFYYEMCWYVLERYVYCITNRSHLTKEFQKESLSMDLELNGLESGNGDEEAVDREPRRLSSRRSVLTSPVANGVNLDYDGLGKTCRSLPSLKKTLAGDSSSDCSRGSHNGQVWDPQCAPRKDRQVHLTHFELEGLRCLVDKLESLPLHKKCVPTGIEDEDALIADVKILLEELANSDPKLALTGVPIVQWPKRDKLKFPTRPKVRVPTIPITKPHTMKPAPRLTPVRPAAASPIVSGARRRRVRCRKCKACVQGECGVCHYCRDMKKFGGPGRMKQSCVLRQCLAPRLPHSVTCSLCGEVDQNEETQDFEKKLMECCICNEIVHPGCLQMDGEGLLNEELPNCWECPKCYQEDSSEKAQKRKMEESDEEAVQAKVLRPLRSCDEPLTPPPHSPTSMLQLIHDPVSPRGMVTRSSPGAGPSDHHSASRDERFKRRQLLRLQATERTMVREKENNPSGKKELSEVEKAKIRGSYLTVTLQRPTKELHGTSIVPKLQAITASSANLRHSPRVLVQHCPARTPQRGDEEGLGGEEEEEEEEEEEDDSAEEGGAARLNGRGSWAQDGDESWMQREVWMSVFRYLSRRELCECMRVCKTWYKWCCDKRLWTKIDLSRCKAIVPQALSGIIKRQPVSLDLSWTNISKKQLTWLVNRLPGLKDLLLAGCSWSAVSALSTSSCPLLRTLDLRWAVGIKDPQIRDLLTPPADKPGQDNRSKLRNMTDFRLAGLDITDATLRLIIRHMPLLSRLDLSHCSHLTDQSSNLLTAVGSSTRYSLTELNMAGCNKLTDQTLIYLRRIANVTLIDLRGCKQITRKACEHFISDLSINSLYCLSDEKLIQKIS

AmpC β-lactamase, sequence (P00811 20-377): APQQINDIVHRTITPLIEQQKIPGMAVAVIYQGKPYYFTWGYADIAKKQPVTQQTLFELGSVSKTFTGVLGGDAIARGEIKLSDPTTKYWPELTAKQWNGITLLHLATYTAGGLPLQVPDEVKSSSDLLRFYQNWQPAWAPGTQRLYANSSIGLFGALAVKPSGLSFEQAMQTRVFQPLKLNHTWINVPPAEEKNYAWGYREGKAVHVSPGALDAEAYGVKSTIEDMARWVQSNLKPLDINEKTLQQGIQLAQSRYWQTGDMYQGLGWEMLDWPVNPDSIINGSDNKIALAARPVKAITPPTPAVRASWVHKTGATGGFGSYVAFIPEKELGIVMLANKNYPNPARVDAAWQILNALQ

## Cn1nccc1CNc1ccc(O)c(C(=O)O)c1 [Compound 4]
[1]
  nonspecific inhibition / colloidal aggregation: neither of the two inhibitors acted as aggregators in a relevant concentration range

## COCC(=O)Nc1ccc(O)c(C(=O)O)c1 [Compound 5]
[1]
  nonspecific inhibition / colloidal aggregation: neither of the two inhibitors acted as aggregators in a relevant concentration range

## Cc1ccccc1CNc1ccc(O)c(C(=O)O)c1 [Compound 20]
[1]
  nonspecific inhibition / colloidal aggregation: did not exhibit nonspecific inhibition
[2]
  stabilization of the enzyme in thermal shift assays: stabilized the enzyme in thermal shift assays

## Nc1ccc(O)c(-c2cc(C(=O)O)ccn2)c1 [Compound 30, 2-(5-Amino-2-hydroxyphenyl)-isonicotinic Acid]
[3]
  IC50: 828 µM
[3]; MALDI, 100 μM α-KG
  fold selectivity over KDM4C, FIH: 6 fold
[4]
  IC50: 135 µM

## O=C(O)c1ccnc(-c2cc(NC(=O)c3ccc(O)cc3)ccc2O)c1 [Compound 35]
[3]; MALDI, 100 μM α-KG
  fold selectivity over KDM4C, FIH: > 85 fold
[5]
  fold selectivity over KDM4C, KDM5B: Ml

## COc1cccc(CC(=O)Nc2ccc(O)c(-c3cc(C(=O)O)ccn3)c2)c1 [Compound 40]
[3]; MALDI, 100 μM α-KG
  fold selectivity over KDM4C, FIH: > 68 fold

## COCC(=O)Nc1ccc(O)c(-c2cc(C(=O)O)ccn2)c1 [Compound 42]
[3]; MALDI, 100 μM α-KG
  fold selectivity over KDM4C, FIH: > 11 fold
[6]; TR-FRET IC50 at 2 μM α-KG, 42 vs 5, 21 vs 4
  fold improvement in potency over the parent 5-aminosalicylate fragment: ~700 fold

## CC(=O)Nc1ccc(O)c(-c2cc(C(=O)O)ccn2)c1 [Compound 44]
[3]; MALDI, 100 μM α-KG
  fold selectivity over KDM4C, FIH: > 8 fold
[3]; MALDI, 100 μM α-KG, >500 = no inhibition at 500 μM inhibitor
  IC50 FIH, MALDI Assays: no inhibition
[7]
  fold selectivity over KDM4C, KDM6B: > 6 fold
[8]
  fold selectivity over KDM4C, KDM2A: > 6 fold

## CC(=O)Nc1ccc(O)c(C(=O)O)c1 [N-acetyl-5-aminosalicylic acid]
[6]; KDM4C, TR-FRET, 2 μM α-KG
  IC50(μM) 2μM αKG: no inhibition
